In patent publication US20230277553A1, “THERAPEUTIC COMPOSITION OF CURE-PRO COMPOUNDS FOR TARGETED DEGRADATION OF BET DOMAIN PROTEINS, AND METHODS OF MAKING AND USAGE” (CORNELL UNIVERSITY, priority 2020, published 2023):
“Also recorded” adds a separate entry of the source.

Experiments:
[1] = target: T1, BRD4 (Homo sapiens, UniProt O60885); test: Summary of BRD4 degradation by CURE-PRO pairs, estimated from Western Blot or WES (Proteinsimple); assay type: cell-based; design: endogenous in cells; details: for Degradation of BRD4 in combination with CRBN ligand [drawing 407]: first drawing (by text: 8048); for Degradation of BRD4 in combination with CRBN ligand [drawing 371]: second drawing (8047)
Excerpt: A black check mark indicates efficacy of 30% to 70% or higher protein degradation.

[2] = target: T1, BRD4; test: CURE-PRO-mediated BRD4 degradation, Western blot, HeLa cells; assay type: cell-based; design: endogenous in cells; host or cells: HeLa; details: 24 h, Western blot; for BRD4 degradation, co-treatment with CRBN ligand 8048: 1:1 with 8048, 1-10 μM each; for BRD4 degradation, co-treatment with CRBN ligand 8049: 1:1 with 8049, 1-10 μM each; for BRD4 degradation, BRD ligand alone: BRD monomer alone; for BRD4 degradation, co-treatment with CRBN ligand 8047: 1:1 with 8047, 10 μM each
Method: All cell lines were purchased from ATCC or DSMZ and grown at 37° C. with 5% CO2. Human HeLa cells were cultured in complete growth medium (Dulbecco's modified Eagle's medium (DMEM) supplemented with 10% FBS); MCF7 cells were cultured in complete growth medium (Dulbecco's modified Eagle's medium (DMEM) supplemented with 10% FBS and 0.01 mg/ml human recombinant insulin (Sigma Aldrich); Namalwa and MOLM-13 cells were cultured in complete growth medium (RPMI 1640 medium supplemented with 10% FBS); MV-4-11 were cultured in complete growth medium (Iscove's Modified Dulbecco's medium, supplemented with 10% FBS); HCT116 cells were cultured in complete growth medium (McCoy's 5a Medium supplemented with 10% FBS). For cellular degradation of BRD4 studies, cells were seeded in a 12-well plate at 70-80% confluency, allowed to attach overnight, and incubated with the indicated compounds for the indicated time. When indicated, a 15-minute pretreatment with 10 μM pomalidomide, 10 μM VHL298, 10 μM Nutlin3a, 1 μM MG-132 or 1 μM Carfilzomib was performed before the addition of CURE-PROs. For washout studies, after CURE-PRO treatment, media was aspirated and incubated with complete medium for the indicated time before lysis.
Anti-BRD4 (13440, 1:1,000 dilution for Western Blot and 1:25 dilution for ProteinSimple); Anti-BRD2 (5848 1:1,000 dilution for Western Blot and 1:25 dilution for ProteinSimple); β-Actin (3700, 1:2,000 dilution for Western Blot), β-Actin (4970, 1:50 dilution for ProteinSimple) anti-mouse IgG-HRP, and anti-rabbit IgG-HRP antibodies were purchased Cell Signaling Technology. Anti-GAPDH (600-401-A33, 1:100 dilution for ProteinSimple) was purchased from Rockland Immunochemicals, Inc. Anti-BRD3 (sc-81202, 1:200 dilution for Western Blot) was purchased from Santa Cruz Biotechnology.
HeLa, MCF7, or HCT116 cells (2.5-3×10^6) were treated for 24 hours with the indicated compounds solubilized in DMSO. The cells were washed in ice-cold PBS and were then lysed in RIPA lysis buffer (150 mM NaCl, 5 mM EDTA, 1% NP-40, 0.5% sodium deoxycholate, 0.1% SDS, 50 mM Tris, pH 8.0.) with Roche protease inhibitor complete cocktail and phosphatase inhibitors (10 mM sodium fluoride, 10 mM sodium pyrophosphate, 1 mM sodium orthovanadate and 20 mM β-glycerophosphate). The total protein concentrations were determined by Bradford Protein Assay and 10-20 μg of protein was loaded onto 4-15% Tris-Glycine gradient gels (Biorad). After standard gel electrophoresis, the separated proteins were transferred to PVDF membrane by wet transfer. The immunoblots were then blocked for 1 hour in 5% skim milk in TBST or 5% BSA in TBST, according to manufacturer's instructions, before an overnight incubation at 4° C. with indicated antibodies and membranes. Membranes were then incubated with the appropriate horseradish peroxidase-conjugated secondary antibodies (1:5,000 dilution) for 1 h at room temperature and the bands were visualized using the Clarity Max Western ECL Substrate (Biorad) and the ChemiDoc Imaging System (Biorad). Signal was detected with ECL Western Blotting Substrate (Pierce) and X-ray film processed with a Konica SRX-101 X-ray film processor or captured by Bio-Rad's Chemidoc Imaging system.
HeLa cells (2.5×106) were treated for 24 hours with the sample compounds solubilized in DMSO. Compounds were added at 1-10 μM each. Standardized protein samples were electrophoresed and imaged as described in the immunoblotting description above. FIGS. 6-18 depicts the CURE-PRO-mediated BRD4 degradation for BRD monomers (JQ1 derivatives comprising of catechol linkers), and CRBN ligands, 8048 and 8049 (pomalidomide derivatives comprising boronic acid linkers) combined in a 1:1 ratio.
HeLa cells (2.5×106) were treated for 24 hours with the compounds solubilized in DMSO. The compounds were added at 10 μM each. Standardized protein samples were electrophoresed and imaged as described in the immunoblotting section above. […]

[3] = Table 4, aryl-boronic acid-containing CRBN ligand

Row | Structure (SMILES) | Degradation of BRD4 in combination with CRBN ligand [drawing 407] [1, 3] | BRD4 degradation, co-treatment with CRBN ligand 8048 [2] | BRD4 degradation, co-treatment with CRBN ligand 8049 [2] | BRD4 degradation, BRD ligand alone [2] | BRD4 degradation, co-treatment with CRBN ligand 8047 [2] | further results
1 | CCNC(=O)C[C@@H]1N=C(c2ccc(Cl)cc2)c2cc(OCCOCCOCCOCCOCCOCCNC(=O)c3ccc(O)c(O)c3)ccc2-n2c(C)nnc21 [BRD-N70, N-(17-(((4S)-6-(4-chlorophenyl)-4-(2-(ethylamino)-2-oxoethyl)-1-methyl-4H-benzo[f][1,2,4]triazolo[4,3-a][1,4]diazepin-8-yl)oxy)-3,6,9,12,15-pentaoxaheptadecyl)-3,4-dihydroxybenzamide] | ✓ (A black check mark indicates efficacy of 30% to 70% or higher protein degradation) | causes degradation of BRD4; also recorded: Degradation is noted | no evidence of BRD4 degradation |  |  | 
2 | CCNC(=O)C[C@@H]1N=C(c2ccc(Cl)cc2)c2cc(-c3ccc4cc(O)c(O)cc4c3)ccc2-n2c(C)nnc21 [BRD-N67] | ✓ (A black check mark indicates efficacy of 30% to 70% or higher protein degradation) | causes degradation of BRD4 | causes degradation of BRD4 | no degradation of BRD4 |  | Degradation of BRD4 in combination with CRBN ligand [drawing 408] ([1]; Table 4, aryl-boronic acid-containing CRBN ligand, second drawing (by text: 8049)): ✓ (A black check mark indicates efficacy of 30% to 70% or higher protein degradation)
3 | CCNC(=O)C[C@@H]1N=C(c2ccc(Cl)cc2)c2cc(OCCOCCOCCNC(=O)c3cccc(B(O)O)c3)ccc2-n2c(C)nnc21 [BRD-E42] |  |  |  |  | causes degradation of BRD4 | Degradation of BRD4 in combination with CRBN ligand [drawing 371] ([1]; Table 1): ✓ (A black check mark indicates efficacy of 30% to 70% or higher protein degradation)
4 | COc1ccc2c(c1)C(c1ccc(Cl)cc1)=N[C@@H](CC(=O)NCCOCCOCCOCCOCCNC(=O)c1ccc(O)c(O)c1)c1nnc(C)n1-2 [BRD-N69] | ✓ (A black check mark indicates efficacy of 30% to 70% or higher protein degradation) | causes degradation of BRD4; also recorded: Degradation is noted | no evidence of BRD4 degradation | no degradation of BRD4 |  | 
5 | COc1ccc2c(c1)C(c1ccc(Cl)cc1)=N[C@@H](CC(=O)NCCOCCOCCOCCNC(=O)c1ccc(O)c(O)c1)c1nnc(C)n1-2 [BRD-N44] | ✓ (A black check mark indicates efficacy of 30% to 70% or higher protein degradation) | causes degradation of BRD4 |  | no degradation of BRD4 |  | 
6 | COc1ccc2c(c1)C(c1ccc(Cl)cc1)=N[C@@H](CC(=O)NCCNC(=O)Cc1ccc(B(O)O)cc1)c1nnc(C)n1-2 [BRD-E27, (4-(2-((2-(2-((4S)-6-(4-chlorophenyl)-8-methoxy-1-methyl-4H-benzo[f][1,2,4]triazolo[4,3-a][1,4]diazepin-4-yl)acetamido)ethyl)amino)-2-oxoethyl)phenyl)boronic acid] |  |  |  |  | causes degradation of BRD4 | Degradation of BRD4 in combination with CRBN ligand [drawing 371] ([1]; Table 1): ✓ (A black check mark indicates efficacy of 30% to 70% or higher protein degradation)
7 | COc1ccc2c(c1)C(c1ccc(Cl)cc1)=N[C@@H](CC(=O)NCCNC(=O)Cc1ccc(O)c(O)c1)c1nnc(C)n1-2 [BRD-N30] | ✓ (A black check mark indicates efficacy of 30% to 70% or higher protein degradation) | causes degradation of BRD4 |  | no degradation of BRD4 |  | 
8 | COc1ccc2c(c1)C(c1ccc(Cl)cc1)=N[C@@H](CC(=O)Nc1ccc(B(O)O)cc1)c1nnc(C)n1-2 [BRD-E74, (4-(2-((4S)-6-(4-chlorophenyl)-8-methoxy-1-methyl-4H-benzo[f][1,2,4]triazolo[4,3-a][1,4]diazepin-4-yl)acetamido)phenyl)boronic acid] |  |  |  |  | causes degradation of BRD4 | Degradation of BRD4 in combination with CRBN ligand [drawing 370] ([1]; Table 1, aromatic 1,2-diol- or hindered cis-1,2-diol-containing CRBN ligand, first drawing (8046)): ✓ (A black check mark indicates efficacy of 30% to 70% or higher protein degradation); BRD4 degradation, co-treatment with CRBN ligand 8046 ([2]; 1:1 with 8046, 10 μM each): causes degradation of BRD4
